Laboratory results: US20090036389A1, “Polymeric Micelle Formulations of Hydrophobic Compounds and Methods” (priority 2002, published 2009)

Tests used:
[1] = Drug loading of PEG-b-PCL (5000:4000) micelles, cosolvent evaporation versus dialysis; format: physicochemical

Experimental for bovine erythrocytes: EDTA-anticoagulated bovine blood was diluted in PBS, pH=7.2. The erythrocytes were separated by centrifugation for 10 min at 3000 rpm. The supernatant was removed and discarded. The packed cell volume (PCV) was washed three more times with PBS. The PCV was diluted appropriately in PBS to obtain suspensions of 8×10^7 and 1.48×10^8 cells/mL. Cell counts were preformed using an Improved Neubauer Brightline hemacytometer (depth=0.1 mm) from Hausser Scientific (Horsham, Pa.). The AmB/polymer formulations and polymer blanks were brought to room temperature and reconstituted with 1.0 mL of PBS just prior to use. 1.85 mL of the 8×10^7 cells/mL suspension was incubated at 37° C. in a shaking water bath (75 rpm) with 150 μL of AmB/polymer formulation, polymer blank containing no AmB, or PBS buffer (control) for 24 h. […] The supernatant was collected, and hemoglobin content was determined by absorbance at 542 nm. […] Percent hemolysis is reported by 100(Abss-Absb)/(Abs1-Absb) where Abss is the absorbance of the sample, Absb is the average absorbance of the buffer, and Abss is the average absorbance of the lysed samples. […]
An 8 mg/mL AmB in DMSO stock solution was prepared. […] The samples were collected over time, and percent hemolysis was determined as described above.

Structure (SMILES) | % Yield of Drug ([1]; Cosolvent Evaporation) [%] | % Yield of Drug ([1]; Dialysis) [%] | Final Drug/Polymer Mole Ratio ([1]; Cosolvent Evaporation) | Final Drug/Polymer Mole Ratio ([1]; Dialysis) | time-dependent hemolytic profile / onset of hemolysis (bovine erythrocytes)
CC(C)OC(=O)C(C)(C)Oc1ccc(C(=O)c2ccc(Cl)cc2)cc1 [Fenofibrate, 2-[4-(4-chlorobenzoyl)phenoxy]-2-methylpropanoic acid 1-methylethyl ester] | 88 | 31 | – | – | –
C[C@@H]1[C@H](O)[C@@H](C)/C=C/C=C/C=C/C=C/C=C/C=C/C=C/[C@H](O[C@@H]2O[C@H](C)[C@@H](O)[C@H](N)[C@@H]2O)C[C@@H]2O[C@](O)(C[C@@H](O)C[C@@H](O)[C@H](O)CC[C@@H](O)C[C@@H](O)CC(=O)O[C@H]1C)C[C@H](O)[C@H]2C(=O)O [Free AmB, amphotericin B] | 48 | 25 | 0.11 | 0.055 | immediate hemolysis
